# Test system: HBV DNA in HepG2.2.15 cells
# Assay: HBV in vitro dot-blot hybridization test
# Assay type: cell-based, Hepatitis B virus
# Details: Hepatitis B virus, HepG2.2.15, dot-blot hybridization assay, read-out: Concentration for 50% inhibition of HBV (EC50)value
# Procedure, shortened: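 HepG2.2.15 cells (4×10^4/well) treated in duplicate with 6 five-fold compound dilutions (1% DMSO final), medium with compound renewed on day 5, cells harvested day 8-9. Intracellular HBV DNA quantified by dot-blot with DIG-labelled probe; % inhibition normalised to 1 μM GLS4 (100%) and DMSO (0%), EC50 fitted.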
row,SMILES,EC50 [nM]
1,CCOC(=O)C1=C2CNS(=O)(=O)CN2C(c2nccs2)=N[C@H]1c1ccc(F)cc1Br [Example 135],500 to 1000
2,CCOC(=O)C1=C2CN(C)S(=O)(=O)CN2C(c2nccs2)=N[C@H]1c1ccc(F)cc1Br [Example 136],500 to 1000
3,CCOC(=O)C1=C2C[C@H](C(=O)NS(=O)(=O)C(F)(F)F)CN2C(c2nccs2)=N[C@H]1c1ccc(F)cc1F [Example 137],1000 to 5000
4,CCOC(=O)C1=C2C[C@H](NS(C)(=O)=O)CN2C(c2nccs2)=N[C@H]1c1ccc(F)cc1F [Example 138],< 100
5,CCOC(=O)C1=C2C[C@H](NC(=O)C3COC3)CN2C(c2nccs2)=N[C@H]1c1ccc(F)cc1Cl [Example 139],1000 to 5000
6,CCOC(=O)C1=C2C[C@H](N[S+]([O-])C(C)(C)C)CN2C(c2nccs2)=N[C@H]1c1ccc(F)cc1Cl (stereo partly shown) [Example 140],500 to 1000
7,CCOC(=O)C1=C2C[C@H](NS(C)(=O)=O)CN2C(c2nccs2)=N[C@@H]1c1ccc(F)cc1Cl [Example 141],500 to 1000
8,CCOC(=O)C1=C2C[C@H](NC(=O)C(F)(F)F)CN2C(c2nccs2)=N[C@H]1c1ccc(F)cc1Cl [Example 142],100 to 500
9,CCOC(=O)C1=C2C[C@H](NS(=O)(=O)CC(=O)O)CN2C(c2nccs2)=N[C@H]1c1ccc(F)cc1Cl [Example 143],100 to 500
10,CCOC(=O)C1=C2C[C@H](NS(=O)(=O)C3COC3)CN2C(c2nccs2)=N[C@H]1c1ccc(F)cc1Cl [Example 144],< 100
11,CCOC(=O)C1=C2C[C@H](NS(C)(=O)=O)CN2C(c2nccs2)=N[C@H]1c1ccc(F)cc1 [Example 145],500 to 1000
12,CCOC(=O)C1=C2[C@@H](NS(C)(=O)=O)CCN2C(c2nccs2)=N[C@H]1c1ccc(F)cc1Br [Example 146],1000 to 5000
13,CCOC(=O)C1=C2[C@H](NS(C)(=O)=O)CCN2C(c2nccs2)=N[C@H]1c1ccc(F)cc1Br [Example 147],1000 to 5000
14,CCOC(=O)C1=C2C[C@H](NS(C)(=O)=O)CN2C(c2nccs2)=N[C@H]1c1ccc(F)c(F)c1 [Example 148],100 to 500
15,COC(=O)C1=C2C[C@H](NS(C)(=O)=O)CN2C(c2nccs2)=N[C@H]1c1ccc(F)cc1Cl [Example 149],< 100
16,CCOC(=O)C1=C2C[C@H](NS(C)(=O)=O)CN2C(c2nccs2)=N[C@H]1c1ccc(Cl)cc1F [Example 150],100 to 500
17,CCOC(=O)C1=C2C[C@H](NS(C)(=O)=O)CN2C(c2nccs2)=N[C@H]1c1ccc(Cl)cc1Cl [Example 151],< 100
18,CC(C)OC(=O)C1=C2C[C@H](NS(C)(=O)=O)CN2C(c2nccs2)=N[C@H]1c1ccc(F)cc1Cl [Example 152],100 to 500
19,CCOC(=O)C1=C2C[C@H](NS(=O)(=O)C(F)(F)F)CN2C(c2nccs2)=N[C@H]1c1ccc(F)cc1Cl [Example 153],< 100
20,CCOC(=O)C1=C2C[C@H](NS(C)(=O)=O)CN2C(c2nncs2)=N[C@H]1c1ccc(F)cc1Cl [Example 154],100 to 500

# Same assay, conditions: Hepatitis B virus, HepG2.2.15, read-out: BIOACTIVITY (inhibitory actions on HBV DNA, EC50), summary list of target compounds, Examples 1-165 (same as Table 2)
row,SMILES,EC50 [nM]
1,CCOC(=O)C1=C2CNS(=O)(=O)CN2C(c2nccs2)=N[C@H]1c1ccc(F)cc1Br [Example 135],500 to 1000

# Same assay, conditions: Hepatitis B virus, HepG2.2.15, summary list of target compounds, Examples 1-165 (same as Table 2), read-out: BIOACTIVITY (inhibitory actions on HBV DNA, EC50)
row,SMILES,EC50 [nM]
1,CCOC(=O)C1=C2CN(C)S(=O)(=O)CN2C(c2nccs2)=N[C@H]1c1ccc(F)cc1Br [Example 136],500 to 1000
2,CCOC(=O)C1=C2C[C@H](C(=O)NS(=O)(=O)C(F)(F)F)CN2C(c2nccs2)=N[C@H]1c1ccc(F)cc1F [Example 137],1000 to 5000
3,CCOC(=O)C1=C2C[C@H](NS(C)(=O)=O)CN2C(c2nccs2)=N[C@H]1c1ccc(F)cc1F [Example 138],< 100
4,CCOC(=O)C1=C2C[C@H](NC(=O)C3COC3)CN2C(c2nccs2)=N[C@H]1c1ccc(F)cc1Cl [Example 139],1000 to 5000
5,CCOC(=O)C1=C2C[C@H](N[S+]([O-])C(C)(C)C)CN2C(c2nccs2)=N[C@H]1c1ccc(F)cc1Cl (stereo partly shown) [Example 140],500 to 1000
6,CCOC(=O)C1=C2C[C@H](NS(C)(=O)=O)CN2C(c2nccs2)=N[C@@H]1c1ccc(F)cc1Cl [Example 141],500 to 1000
7,CCOC(=O)C1=C2C[C@H](NC(=O)C(F)(F)F)CN2C(c2nccs2)=N[C@H]1c1ccc(F)cc1Cl [Example 142],100 to 500
8,CCOC(=O)C1=C2C[C@H](NS(=O)(=O)CC(=O)O)CN2C(c2nccs2)=N[C@H]1c1ccc(F)cc1Cl [Example 143],100 to 500
9,CCOC(=O)C1=C2C[C@H](NS(=O)(=O)C3COC3)CN2C(c2nccs2)=N[C@H]1c1ccc(F)cc1Cl [Example 144],< 100
10,CCOC(=O)C1=C2C[C@H](NS(C)(=O)=O)CN2C(c2nccs2)=N[C@H]1c1ccc(F)cc1 [Example 145],500 to 1000
11,CCOC(=O)C1=C2[C@@H](NS(C)(=O)=O)CCN2C(c2nccs2)=N[C@H]1c1ccc(F)cc1Br [Example 146],1000 to 5000
12,CCOC(=O)C1=C2[C@H](NS(C)(=O)=O)CCN2C(c2nccs2)=N[C@H]1c1ccc(F)cc1Br [Example 147],1000 to 5000
13,CCOC(=O)C1=C2C[C@H](NS(C)(=O)=O)CN2C(c2nccs2)=N[C@H]1c1ccc(F)c(F)c1 [Example 148],100 to 500
14,COC(=O)C1=C2C[C@H](NS(C)(=O)=O)CN2C(c2nccs2)=N[C@H]1c1ccc(F)cc1Cl [Example 149],< 100
15,CCOC(=O)C1=C2C[C@H](NS(C)(=O)=O)CN2C(c2nccs2)=N[C@H]1c1ccc(Cl)cc1F [Example 150],100 to 500
16,CCOC(=O)C1=C2C[C@H](NS(C)(=O)=O)CN2C(c2nccs2)=N[C@H]1c1ccc(Cl)cc1Cl [Example 151],< 100
17,CC(C)OC(=O)C1=C2C[C@H](NS(C)(=O)=O)CN2C(c2nccs2)=N[C@H]1c1ccc(F)cc1Cl [Example 152],100 to 500
18,CCOC(=O)C1=C2C[C@H](NS(=O)(=O)C(F)(F)F)CN2C(c2nccs2)=N[C@H]1c1ccc(F)cc1Cl [Example 153],< 100
19,CCOC(=O)C1=C2C[C@H](NS(C)(=O)=O)CN2C(c2nncs2)=N[C@H]1c1ccc(F)cc1Cl [Example 154],100 to 500

# From patent publication US9938301B2, “Dihydropyrimido fused ring derivative as HBV inhibitor” (QILU PHARMACEUTICAL CO., LTD., priority 2014, dated 2018)
